# Reference: patent publication US9029404B2, “Apoptosis-inducing agents for the treatment of cancer and immune and autoimmune diseases” (AbbVie Inc., priority 2008, dated 2015)
# Biological target: GST-Bcl-2 (Homo sapiens, UniProt P10415)
# Experiment: Time Resolved-Fluorescence Resonance Energy Transfer (TR-FRET) Bcl-2 binding assay
# Conditions: competition with F-Bak peptide probe (100 nM); GST-Bcl-2 1 nM; Tb-anti-GST 1 nM; 3 hours at room temperature; Wang's equation
# Protocol: Determination of the utility of compounds having Formula (I) as binders to and inhibitors of anti-apoptotic Bcl-2 proteins was performed using the Time Resolved-Fluorescence Resonance Energy Transfer (TR-FRET) Assay. Tb-anti-GST antibody was purchased from Invitrogen (Catalog No. PV4216).
# (§1) Representative compounds were serially diluted in dimethyl sulfoxide (DMSO) starting at 50 μM (2× starting concentration; 10% DMSO) and 10 μL were transferred into a 384-well plate. The samples are then mixed on a shaker for 1 minute and incubated for an additional 3 hours at room temperature. For each assay, the probe/antibody and protein/probe/antibody were included on each assay plate as negative and positive controls, respectively. Fluorescence was measured on the Envision (Perkin Elmer) using a 340/35 nm excitation filter and 520/525 (F-Bak peptide) and 495/510 nm (Tb-labeled anti-Histidine antibody) emission filters.
# as §1, with “The” for “Representative compounds were serially diluted in dimethyl sulfoxide (DMSO) starting at 50 μM (2× starting concentration; 10% DMSO) and 10 μL were transferred into a 384-well plate. The”, “were” for “are”
# The inhibition constant (Ki) is the dissociation constant of an enzyme-inhibitor complex or a protein/small molecule complex, wherein the small molecule is inhibiting binding of one protein to another protein. So a large Ki value indicates a low binding affinity and a small Ki value indicates a high binding affinity.
# GST-Bcl-2, sequence (P10415 whole entry): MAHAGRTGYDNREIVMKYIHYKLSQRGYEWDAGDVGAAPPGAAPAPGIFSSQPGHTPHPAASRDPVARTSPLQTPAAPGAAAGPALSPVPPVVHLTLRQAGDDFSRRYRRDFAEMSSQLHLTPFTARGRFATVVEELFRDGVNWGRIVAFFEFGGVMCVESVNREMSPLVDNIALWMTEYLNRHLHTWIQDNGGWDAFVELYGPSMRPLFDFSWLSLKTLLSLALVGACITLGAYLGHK
row,SMILES,Ki
1,"CC1(C)CCC(CN2CCN(c3ccc(C(=O)NS(=O)(=O)c4ccc(N[C@@H]5CCN(C6COC6)C5)c([N+](=O)[O-])c4)c(Oc4cnc(N)c(Cl)c4)c3)CC2)=C(c2ccc(Cl)cc2)C1 [Example 455, 2-[(6-amino-5-chloropyridin-3-yl)oxy]-4-(4-{[2-(4-chlorophenyl)-4,4-dimethylcyclohex-1-en-1-yl]methyl}piperazin-1-yl)-N-[(3-nitro-4-{[(3R)-1-(oxetan-3-yl)pyrrolidin-3-yl]amino}phenyl)sulfonyl]benzamide]",0.011 nM
2,"CC1(C)CCC(CN2CCN(c3ccc(C(=O)NS(=O)(=O)c4cnc(OC[C@H]5CC[C@H](O)CC5)c(Cl)c4)c(Oc4ccc(F)c5[nH]ncc45)c3)CC2)=C(c2ccc(Cl)cc2)C1 [Example 419, N-({5-chloro-6-[(trans-4-hydroxycyclohexyl)methoxy]pyridin-3-yl}sulfonyl)-4-(4-{[2-(4-chlorophenyl)-4,4-dimethylcyclohex-1-en-1-yl]methyl}piperazin-1-yl)-2-[(7-fluoro-1H-indazol-4-yl)oxy]benzamide]",0.012 nM
3,"CC1(C)CCC(CN2CCN(c3ccc(C(=O)NS(=O)(=O)c4ccc(OCC5(F)CCN(C6COC6)CC5)c([N+](=O)[O-])c4)c(Oc4cnc(N)c(Cl)c4)c3)CC2)=C(c2ccc(Cl)cc2)C1 [Example 432, 2-[(6-amino-5-chloropyridin-3-yl)oxy]-4-(4-{[2-(4-chlorophenyl)-4,4-dimethylcyclohex-1-en-1-yl]methyl}piperazin-1-yl)-N-[(4-{[4-fluoro-1-(oxetan-3-yl)piperidin-4-yl]methoxy}-3-nitrophenyl)sulfonyl]benzamide]",< 0.01 nM
4,"O=C(NS(=O)(=O)c1cnc(OCC2(F)CCOCC2)c(Cl)c1)c1ccc(N2CCN(CC3=C(c4ccc(Cl)cc4)CCN(C(CF)CF)C3)CC2)cc1Oc1cc2cc[nH]c2cc1F [Example 417, N-({5-chloro-6-[(4-fluorotetrahydro-2H-pyran-4-yl)methoxy]pyridin-3-yl}sulfonyl)-4-(4-{[4-(4-chlorophenyl)-1-(1,3-difluoropropan-2-yl)-1,2,5,6-tetrahydropyridin-3-yl]methyl}piperazin-1-yl)-2-[(6-fluoro-1H-indol-5-yl)oxy]benzamide]",6.88 nM
5,"CC1(C)CCC(CN2CCN(c3ccc(C(=O)NS(=O)(=O)c4ccc(N[C@H]5CC[C@@H](N6CCOCC6)CC5)c([N+](=O)[O-])c4)c(Oc4cnc(N)c(Cl)c4)c3)CC2)=C(c2ccc(Cl)cc2)C1 [Example 452, 2-[(6-amino-5-chloropyridin-3-yl)oxy]-4-(4-{[2-(4-chlorophenyl)-4,4-dimethylcyclohex-1-en-1-yl]methyl}piperazin-1-yl)-N-[(4-{[cis-4-(morpholin-4-yl)cyclohexyl]amino}-3-nitrophenyl)sulfonyl]benzamide]",0.112 nM
6,"CC1(C)CCC(CN2CCN(c3ccc(C(=O)NS(=O)(=O)c4cnc(OCC5CCC(C)(O)CC5)c(C#N)c4)c(Oc4cc(F)cc5[nH]ncc45)c3)CC2)=C(c2ccc(Cl)cc2)C1 (stereo not drawn) [Example 453, 4-(4-{[2-(4-chlorophenyl)-4,4-dimethylcyclohex-1-en-1-yl]methyl}piperazin-1-yl)-N-({5-cyano-6-[(trans-4-hydroxy-4-methylcyclohexyl)methoxy]pyridin-3-yl}sulfonyl)-2-[(6-fluoro-1H-indazol-4-yl)oxy]benzamide]",< 0.01 nM
7,"CC1(C)CCC(CN2CCN(c3ccc(C(=O)NS(=O)(=O)c4cnc(OCC5(F)CCC(C)(O)CC5)c(Cl)c4)c(Oc4cnc(N)c(Cl)c4)c3)CC2)=C(c2ccc(Cl)cc2)C1 (stereo not drawn) [Example 443, 2-[(6-amino-5-chloropyridin-3-yl)oxy]-N-({5-chloro-6-[(trans-1-fluoro-4-hydroxy-4-methylcyclohexyl)methoxy]pyridin-3-yl}sulfonyl)-4-(4-{[2-(4-chlorophenyl)-4,4-dimethylcyclohex-1-en-1-yl]methyl}piperazin-1-yl)benzamide]",0.029 nM
8,"CC1(C)CC(c2ccc(Cl)cc2)=C(CN2CCN(c3ccc(C(=O)NS(=O)(=O)c4ccc(OCC5(F)CCOCC5)c([N+](=O)[O-])c4)c(Oc4cc5cc[nH]c5cc4F)c3)CC2)CO1 [Example 297, 4-(4-{[4-(4-chlorophenyl)-6,6-dimethyl-5,6-dihydro-2H-pyran-3-yl]methyl}piperazin-1-yl)-2-[(6-fluoro-1H-indol-5-yl)oxy]-N-({4-[(4-fluorotetrahydro-2H-pyran-4-yl)methoxy]-3-nitrophenyl}sulfonyl)benzamide]",< 0.01 nM
9,"CC1(C)CCC(CN2CCN(c3ccc(C(=O)NS(=O)(=O)c4ccc(OCC5(F)CCOCC5)c(Cl)c4)c(Oc4cc5cc[nH]c5cc4F)c3)CC2)=C(c2ccc(Cl)cc2)C1 [Example 412, N-({3-chloro-4-[(4-fluorotetrahydro-2H-pyran-4-yl)methoxy]phenyl}sulfonyl)-4-(4-{[2-(4-chlorophenyl)-4,4-dimethylcyclohex-1-en-1-yl]methyl}piperazin-1-yl)-2-[(6-fluoro-1H-indol-5-yl)oxy]benzamide]",1.12 nM
10,"CC1(C)CCC(CN2CCN(c3ccc(C(=O)NS(=O)(=O)c4cnc(OCC5(F)CCOCC5)c(Cl)c4)c(Oc4cccc5[nH]nc(N)c45)c3)CC2)=C(c2ccc(Cl)cc2)C1 [Example 430, 2-[(3-amino-1H-indazol-4-yl)oxy]-N-({5-chloro-6-[(4-fluorotetrahydro-2H-pyran-4-yl)methoxy]pyridin-3-yl}sulfonyl)-4-(4-{[2-(4-chlorophenyl)-4,4-dimethylcyclohex-1-en-1-yl]methyl}piperazin-1-yl)benzamide]",< 0.01 nM
11,"CN1CCC(C)(Nc2ccc(S(=O)(=O)NC(=O)c3ccc(N4CCN(CC5=C(c6ccc(Cl)cc6)CC(C)(C)CC5)CC4)cc3Oc3ccccc3Cl)cc2[N+](=O)[O-])CC1 [Example 168, 2-(2-chlorophenoxy)-4-(4-{[2-(4-chlorophenyl)-4,4-dimethylcyclohex-1-en-1-yl]methyl}piperazin-1-yl)-N-({4-[(1,4-dimethylpiperidin-4-yl)amino]-3-nitrophenyl}sulfonyl)benzamide]",28.3 nM
12,"CC1(C)CCC(CN2CCN(c3ccc(C(=O)NS(=O)(=O)c4ccc(OCC5(F)CCOCC5)c([N+](=O)[O-])c4)c(Oc4cccc5[nH]nc(N)c45)c3)CC2)=C(c2ccc(Cl)cc2)C1 [Example 429, 2-[(3-amino-1H-indazol-4-yl)oxy]-4-(4-{[2-(4-chlorophenyl)-4,4-dimethylcyclohex-1-en-1-yl]methyl}piperazin-1-yl)-N-({4-[(4-fluorotetrahydro-2H-pyran-4-yl)methoxy]-3-nitrophenyl}sulfonyl)benzamide]",< 0.01 nM
13,"CC1(C)CCC(CN2CCN(c3ccc(C(=O)NS(=O)(=O)c4ccc(NCC5CN(C6COC6)CCO5)c([N+](=O)[O-])c4)c(Oc4cc5cc[nH]c5cc4F)c3)CC2)=C(c2ccc(Cl)cc2)C1 (centres unmarked) [Example 422, 4-(4-{[2-(4-chlorophenyl)-4,4-dimethylcyclohex-1-en-1-yl]methyl}piperazin-1-yl)-2-[(6-fluoro-1H-indol-5-yl)oxy]-N-{[3-nitro-4-({[4-(oxetan-3-yl)morpholin-2-yl]methyl}amino)phenyl]sulfonyl}benzamide]",< 0.01 nM
14,"Cn1c(=O)[nH]c2cccc(Oc3cc(N4CCN(CC5=C(c6ccc(Cl)cc6)CC(C)(C)CC5)CC4)ccc3C(=O)NS(=O)(=O)c3cnc(OCC4CCOCC4)c(Cl)c3)c21 [Example 425, 4-(4-{[2-(4-chlorophenyl)-4,4-dimethylcyclohex-1-en-1-yl]methyl}piperazin-1-yl)-N-{[5-chloro-6-(tetrahydro-2H-pyran-4-ylmethoxy)pyridin-3-yl]sulfonyl}-2-[(3-methyl-2-oxo-2,3-dihydro-1H-benzimidazol-4-yl)oxy]benzamide]",0.013 nM
15,"CC1(C)CCC(CN2CCN(c3ccc(C(=O)NS(=O)(=O)c4ccc(NC[C@H]5CN(C6COC6)CCO5)c([N+](=O)[O-])c4)c(Oc4cnc(N)c(Cl)c4)c3)CC2)=C(c2ccc(Cl)cc2)C1 [Example 448, 2-[(6-amino-5-chloropyridin-3-yl)oxy]-4-(4-{[2-(4-chlorophenyl)-4,4-dimethylcyclohex-1-en-1-yl]methyl}piperazin-1-yl)-N-{[3-nitro-4-({[(2S)-4-(oxetan-3-yl)morpholin-2-yl]methyl}amino)phenyl]sulfonyl}benzamide]",< 0.01 nM
16,"CC(C)(C)OC(=O)N1CCC(c2ccc(Cl)cc2)=C(CN2CCN(c3ccc(C(=O)NS(=O)(=O)c4cnc(OCC5(F)CCOCC5)c(Cl)c4)c(Oc4cc5cc[nH]c5cc4F)c3)CC2)C1 [Example 416, tert-butyl 5-[(4-{4-[({5-chloro-6-[(4-fluorotetrahydro-2H-pyran-4-yl)methoxy]pyridin-3-yl}sulfonyl)carbamoyl]-3-[(6-fluoro-1H-indol-5-yl)oxy]phenyl}piperazin-1-yl)methyl]-4-(4-chlorophenyl)-3,6-dihydropyridine-1(2H)-carboxylate]",7.44 nM
17,"CC1(C)CCC(CN2CCN(c3ccc(C(=O)NS(=O)(=O)c4cnc(OCC5(F)CCOCC5)c(Cl)c4)c(Oc4cc(F)cc5[nH]ncc45)c3)CC2)=C(c2ccc(Cl)cc2)C1 [Example 415, N-({5-chloro-6-[(4-fluorotetrahydro-2H-pyran-4-yl)methoxy]pyridin-3-yl}sulfonyl)-4-(4-{[2-(4-chlorophenyl)-4,4-dimethylcyclohex-1-en-1-yl]methyl}piperazin-1-yl)-2-[(6-fluoro-1H-indazol-4-yl)oxy]benzamide]",0.013 nM
